Converted amounts (≈) assume the structure as drawn.
Legend:
Bacteroides fragilis [1] = test: Antibacterial activity against Bacteroides fragilis assessed as susceptible isolates by CLSI agar dilution method; type: functional
Bacteroides fragilis [2] = test: Antibacterial activity against Bacteroides fragilis assessed as resistant isolates by CLSI agar dilution method; type: functional
[3] = tested on: Bacteroides thetaiotaomicron; test: Antibacterial activity against beta-lactamase producing Bacteroides thetaiotaomicron assessed as susceptible isolates by CLSI agar dilution method; type: functional
[4] = tested on: Bacteroides thetaiotaomicron; test: Antibacterial activity against beta-lactamase producing Bacteroides thetaiotaomicron assessed as resistant isolates by CLSI agar dilution method; type: functional
Phocaeicola vulgatus [5] = test: Antibacterial activity against beta-lactamase producing Bacteroides vulgatus by CLSI agar dilution method; type: functional
Phocaeicola vulgatus [6] = test: Antibacterial activity against beta-lactamase producing Bacteroides vulgatus assessed as susceptible isolates by CLSI agar dilution method; type: functional
Phocaeicola vulgatus [7] = test: Antibacterial activity against beta-lactamase producing Bacteroides vulgatus assessed as resistant isolates by CLSI agar dilution method; type: functional
Bacteroides uniformis [8] = test: Antibacterial activity against beta-lactamase producing Bacteroides uniformis by CLSI agar dilution method; type: functional
Bacteroides uniformis [9] = test: Antibacterial activity against beta-lactamase producing Bacteroides uniformis assessed as susceptible isolates by CLSI agar dilution method; type: functional
Bacteroides uniformis [10] = test: Antibacterial activity against beta-lactamase producing Bacteroides uniformis assessed as resistant isolates by CLSI agar dilution method; type: functional
Bacteroides caccae [11] = test: Antibacterial activity against beta-lactamase producing Bacteroides caccae by CLSI agar dilution method; type: functional
Bacteroides caccae [12] = test: Antibacterial activity against beta-lactamase producing Bacteroides caccae assessed as susceptible isolates by CLSI agar dilution method; type: functional
Bacteroides caccae [13] = test: Antibacterial activity against beta-lactamase producing Bacteroides caccae assessed as resistant isolates by CLSI agar dilution method; type: functional
Fusobacterium varium [14] = test: Antibacterial activity against Fusobacterium varium by CLSI agar dilution method; type: functional
Fusobacterium nucleatum [15] = test: Antibacterial activity against Fusobacterium nucleatum by CLSI agar dilution method; type: functional
Fusobacterium mortiferum [16] = test: Antibacterial activity against Fusobacterium mortiferum by CLSI agar dilution method; type: functional
[17] = tested on: Fusobacterium necrophorum; test: Antibacterial activity against Fusobacterium necrophorum by CLSI agar dilution method; type: functional
Fusobacterium varium [18] = test: Antibacterial activity against Fusobacterium varium assessed as susceptible isolates by CLSI agar dilution method; type: functional
Fusobacterium nucleatum [19] = test: Antibacterial activity against Fusobacterium nucleatum assessed as susceptible isolates by CLSI agar dilution method; type: functional
Fusobacterium mortiferum [20] = test: Antibacterial activity against Fusobacterium mortiferum assessed as susceptible isolates by CLSI agar dilution method; type: functional
[21] = tested on: Fusobacterium necrophorum; test: Antibacterial activity against Fusobacterium necrophorum assessed as susceptible isolates by CLSI agar dilution method; type: functional
Fusobacterium varium [22] = test: Antibacterial activity against Fusobacterium varium assessed as resistant isolates by CLSI agar dilution method; type: functional
Fusobacterium nucleatum [23] = test: Antibacterial activity against Fusobacterium nucleatum assessed as resistant isolates by CLSI agar dilution method; type: functional
Fusobacterium mortiferum [24] = test: Antibacterial activity against Fusobacterium mortiferum assessed as resistant isolates by CLSI agar dilution method; type: functional
[25] = tested on: Fusobacterium necrophorum; test: Antibacterial activity against Fusobacterium necrophorum assessed as resistant isolates by CLSI agar dilution method; type: functional
Prevotella buccae [26] = test: Antibacterial activity against Prevotella buccae by CLSI agar dilution method; type: functional; conditions: Segatella buccae
Prevotella bivia [27] = test: Antibacterial activity against Prevotella bivia by CLSI agar dilution method; type: functional
Prevotella intermedia [28] = test: Antibacterial activity against Prevotella intermedia by CLSI agar dilution method; type: functional
[29] = tested on: Prevotella melaninogenica; test: Antibacterial activity against Prevotella melaninogenica by CLSI agar dilution method; type: functional
Prevotella buccae [30] = test: Antibacterial activity against Prevotella buccae assessed as susceptible isolates by CLSI agar dilution method; type: functional, Segatella buccae
Prevotella bivia [31] = test: Antibacterial activity against Prevotella bivia assessed as susceptible isolates by CLSI agar dilution method; type: functional
Prevotella intermedia [32] = test: Antibacterial activity against Prevotella intermedia assessed as susceptible isolates by CLSI agar dilution method; type: functional
[33] = tested on: Prevotella melaninogenica; test: Antibacterial activity against Prevotella melaninogenica assessed as susceptible isolates by CLSI agar dilution method; type: functional
Prevotella buccae [34] = test: Antibacterial activity against Prevotella buccae assessed as resistant isolates by CLSI agar dilution method; type: functional, Segatella buccae
Prevotella bivia [35] = test: Antibacterial activity against Prevotella bivia assessed as resistant isolates by CLSI agar dilution method; type: functional
Prevotella intermedia [36] = test: Antibacterial activity against Prevotella intermedia assessed as resistant isolates by CLSI agar dilution method; type: functional
[37] = tested on: Prevotella melaninogenica; test: Antibacterial activity against Prevotella melaninogenica assessed as resistant isolates by CLSI agar dilution method; type: functional
Veillonella parvula = test: Antibacterial activity against Veillonella parvula by CLSI agar dilution method; type: functional
Clostridium perfringens = test: microbe, parasite or virus in culture; type: functional
[38] = tested on: Clostridium paraputrificum; test: Antibacterial activity against beta-lactamase producing Clostridium paraputrificum by CLSI agar dilution method; type: functional
Clostridium septicum [39] = test: Antibacterial activity against beta-lactamase producing Clostridium septicum by CLSI agar dilution method; type: functional
Clostridium tertium [40] = test: Antibacterial activity against beta-lactamase producing Clostridium tertium by CLSI agar dilution method; type: functional
[41] = tested on: Clostridium paraputrificum; test: Antibacterial activity against beta-lactamase producing Clostridium paraputrificum assessed as susceptible isolates by CLSI agar dilution method; type: functional
Clostridium septicum [42] = test: Antibacterial activity against beta-lactamase producing Clostridium septicum assessed as susceptible isolates by CLSI agar dilution method; type: functional
Clostridium tertium [43] = test: Antibacterial activity against beta-lactamase producing Clostridium tertium assessed as susceptible isolates by CLSI agar dilution method; type: functional
Bacteroides fragilis [44] = test: Antibacterial activity against Bacteroides fragilis by CLSI agar dilution method; type: functional
[45] = tested on: Bacteroides thetaiotaomicron; test: Antibacterial activity against beta-lactamase producing Bacteroides thetaiotaomicron by CLSI agar dilution method; type: functional
[46] = tested on: Clostridium paraputrificum; test: Antibacterial activity against beta-lactamase producing Clostridium paraputrificum assessed as resistant isolates by CLSI agar dilution method; type: functional
Clostridium septicum [47] = test: Antibacterial activity against beta-lactamase producing Clostridium septicum assessed as resistant isolates by CLSI agar dilution method; type: functional
Clostridium tertium [48] = test: Antibacterial activity against beta-lactamase producing Clostridium tertium assessed as resistant isolates by CLSI agar dilution method; type: functional
[49] = tested on: Peptostreptococcus anaerobius; test: Antibacterial activity against beta-lactamase producing Peptostreptococcus anaerobius by CLSI agar dilution method; type: functional
[50] = tested on: Peptostreptococcus anaerobius; test: Antibacterial activity against beta-lactamase producing Peptostreptococcus anaerobius assessed as susceptible isolates by CLSI agar dilution method; type: functional
[51] = tested on: Peptostreptococcus anaerobius; test: Antibacterial activity against beta-lactamase producing Peptostreptococcus anaerobius assessed as resistant isolates by CLSI agar dilution method; type: functional
Parvimonas micra [52] = test: Antibacterial activity against beta-lactamase producing Micromonas micros by CLSI agar dilution method; type: functional
Parvimonas micra [53] = test: Antibacterial activity against beta-lactamase producing Micromonas micros assessed as susceptible isolates by CLSI agar dilution method; type: functional
Parvimonas micra [54] = test: Antibacterial activity against beta-lactamase producing Micromonas micros assessed as resistant isolates by CLSI agar dilution method; type: functional
[55] = tested on: Peptoniphilus asaccharolyticus; test: Antibacterial activity against beta-lactamase producing Peptoniphilus asaccharolyticus by CLSI agar dilution method; type: functional
[56] = tested on: Peptoniphilus asaccharolyticus; test: Antibacterial activity against beta-lactamase producing Peptoniphilus asaccharolyticus assessed as susceptible isolates by CLSI agar dilution method; type: functional
[57] = tested on: Peptoniphilus asaccharolyticus; test: Antibacterial activity against beta-lactamase producing Peptoniphilus asaccharolyticus assessed as resistant isolates by CLSI agar dilution method; type: functional
Finegoldia magna [58] = test: Antibacterial activity against beta-lactamase producing Finegoldia magna by CLSI agar dilution method; type: functional
Finegoldia magna [59] = test: Antibacterial activity against beta-lactamase producing Finegoldia magna assessed as susceptible isolates by CLSI agar dilution method; type: functional
Finegoldia magna [60] = test: Antibacterial activity against beta-lactamase producing Finegoldia magna assessed as resistant isolates by CLSI agar dilution method; type: functional

CO[C@@]1(NC(=O)CSCC#N)C(=O)N2C(C(=O)O)=C(CSc3nnnn3C)CS[C@@H]21 [CEFMETAZOLE]
Activity (Bacteroides fragilis [1]): 72%
Activity (Bacteroides fragilis [2]): 13%
Activity [3]: 20%
Activity [4]: 17%
MIC50 (Phocaeicola vulgatus [5]): 32 µg/mL (≈ 67.9 µM)
MIC90 (Phocaeicola vulgatus [5]): 128 µg/mL (≈ 271 µM)
Activity (Phocaeicola vulgatus [6]): 44%
Activity (Phocaeicola vulgatus [7]): 30%
MIC50 (Bacteroides uniformis [8]): 32 µg/mL (≈ 67.9 µM)
MIC90 (Bacteroides uniformis [8]): 128 µg/mL (≈ 271 µM)
Activity (Bacteroides uniformis [9]): 44%
Activity (Bacteroides uniformis [10]): 30%
MIC50 (Bacteroides caccae [11]): 32 µg/mL (≈ 67.9 µM)
MIC90 (Bacteroides caccae [11]): 128 µg/mL (≈ 271 µM)
Activity (Bacteroides caccae [12]): 44%
Activity (Bacteroides caccae [13]): 30%
MIC50 (Fusobacterium varium [14]): 1 µg/mL (≈ 2.12 µM)
MIC90 (Fusobacterium varium [14]): 2 µg/mL (≈ 4.24 µM)
MIC50 (Fusobacterium nucleatum [15]): 1 µg/mL (≈ 2.12 µM)
MIC90 (Fusobacterium nucleatum [15]): 2 µg/mL (≈ 4.24 µM)
MIC50 (Fusobacterium mortiferum [16]): 1 µg/mL (≈ 2.12 µM)
MIC90 (Fusobacterium mortiferum [16]): 2 µg/mL (≈ 4.24 µM)
MIC50 [17]: 1 µg/mL (≈ 2.12 µM)
MIC90 [17]: 2 µg/mL (≈ 4.24 µM)
Activity (Fusobacterium varium [18]): 100%
Activity (Fusobacterium nucleatum [19]): 100%
Activity (Fusobacterium mortiferum [20]): 100%
Activity [21]: 100%
Activity (Fusobacterium varium [22]): 0%
Activity (Fusobacterium nucleatum [23]): 0%
Activity (Fusobacterium mortiferum [24]): 0%
Activity [25]: 0%
MIC50 (Prevotella buccae [26]): 2 µg/mL (≈ 4.24 µM)
MIC90 (Prevotella buccae [26]): 8 µg/mL (≈ 17 µM)
MIC50 (Prevotella bivia [27]): 2 µg/mL (≈ 4.24 µM)
MIC90 (Prevotella bivia [27]): 8 µg/mL (≈ 17 µM)
MIC50 (Prevotella intermedia [28]): 2 µg/mL (≈ 4.24 µM)
MIC90 (Prevotella intermedia [28]): 8 µg/mL (≈ 17 µM)
MIC50 [29]: 2 µg/mL (≈ 4.24 µM)
MIC90 [29]: 8 µg/mL (≈ 17 µM)
Activity (Prevotella buccae [30]): 94%
Activity (Prevotella bivia [31]): 94%
Activity (Prevotella intermedia [32]): 94%
Activity [33]: 94%
Activity (Prevotella buccae [34]): 6%
Activity (Prevotella bivia [35]): 6%
Activity (Prevotella intermedia [36]): 6%
Activity [37]: 6%
MIC (Veillonella parvula): > 0.25 µg/mL
MIC50 (Clostridium perfringens): 1 µg/mL (≈ 2.12 µM)
MIC90 (Clostridium perfringens): 16 µg/mL (≈ 33.9 µM)
MIC50 [38]: 1 µg/mL (≈ 2.12 µM)
MIC90 [38]: 16 µg/mL (≈ 33.9 µM)
MIC50 (Clostridium septicum [39]): 1 µg/mL (≈ 2.12 µM)
MIC90 (Clostridium septicum [39]): 16 µg/mL (≈ 33.9 µM)
MIC50 (Clostridium tertium [40]): 1 µg/mL (≈ 2.12 µM)
MIC90 (Clostridium tertium [40]): 16 µg/mL (≈ 33.9 µM)
Activity [41]: 89%
Activity (Clostridium septicum [42]): 89%
Activity (Clostridium tertium [43]): 89%
MIC50 (Bacteroides fragilis [44]): 16 µg/mL (≈ 33.9 µM)
MIC90 (Bacteroides fragilis [44]): 64 µg/mL (≈ 136 µM)
MIC50 [45]: 32 µg/mL (≈ 67.9 µM)
MIC90 [45]: 64 µg/mL (≈ 136 µM)
Activity [46]: 0%
Activity (Clostridium septicum [47]): 0%
Activity (Clostridium tertium [48]): 0%
MIC50 [49]: 0.5 µg/mL (≈ 1.06 µM)
MIC90 [49]: 8 µg/mL (≈ 17 µM)
Activity [50]: 97%
Activity [51]: 0%
MIC50 (Parvimonas micra [52]): 0.5 µg/mL (≈ 1.06 µM)
MIC90 (Parvimonas micra [52]): 8 µg/mL (≈ 17 µM)
Activity (Parvimonas micra [53]): 97%
Activity (Parvimonas micra [54]): 0%
MIC50 [55]: 0.5 µg/mL (≈ 1.06 µM)
MIC90 [55]: 8 µg/mL (≈ 17 µM)
Activity [56]: 97%
Activity [57]: 0%
MIC50 (Finegoldia magna [58]): 0.5 µg/mL (≈ 1.06 µM)
MIC90 (Finegoldia magna [58]): 8 µg/mL (≈ 17 µM)
Activity (Finegoldia magna [59]): 97%
Activity (Finegoldia magna [60]): 0%
